Reference: US9938299B2, “Glycosidase inhibitors and uses thereof” (MERCK SHARP & DOHME CORP., priority 2012, dated 2018)
pKi: −log10 of the molar value. Read-outs that look alike come from different tables or passages of the source.

Tests used:
[1] = biological target: T1, human O-GlcNAcase (Homo sapiens, UniProt O60502); assay: Determination of KI values for inhibition of O-GlcNAcase activity (fluorogenic 4-methylumbelliferyl GlcNAc substrate); assay type: biochemical
T1 sequence (O60502 1-916): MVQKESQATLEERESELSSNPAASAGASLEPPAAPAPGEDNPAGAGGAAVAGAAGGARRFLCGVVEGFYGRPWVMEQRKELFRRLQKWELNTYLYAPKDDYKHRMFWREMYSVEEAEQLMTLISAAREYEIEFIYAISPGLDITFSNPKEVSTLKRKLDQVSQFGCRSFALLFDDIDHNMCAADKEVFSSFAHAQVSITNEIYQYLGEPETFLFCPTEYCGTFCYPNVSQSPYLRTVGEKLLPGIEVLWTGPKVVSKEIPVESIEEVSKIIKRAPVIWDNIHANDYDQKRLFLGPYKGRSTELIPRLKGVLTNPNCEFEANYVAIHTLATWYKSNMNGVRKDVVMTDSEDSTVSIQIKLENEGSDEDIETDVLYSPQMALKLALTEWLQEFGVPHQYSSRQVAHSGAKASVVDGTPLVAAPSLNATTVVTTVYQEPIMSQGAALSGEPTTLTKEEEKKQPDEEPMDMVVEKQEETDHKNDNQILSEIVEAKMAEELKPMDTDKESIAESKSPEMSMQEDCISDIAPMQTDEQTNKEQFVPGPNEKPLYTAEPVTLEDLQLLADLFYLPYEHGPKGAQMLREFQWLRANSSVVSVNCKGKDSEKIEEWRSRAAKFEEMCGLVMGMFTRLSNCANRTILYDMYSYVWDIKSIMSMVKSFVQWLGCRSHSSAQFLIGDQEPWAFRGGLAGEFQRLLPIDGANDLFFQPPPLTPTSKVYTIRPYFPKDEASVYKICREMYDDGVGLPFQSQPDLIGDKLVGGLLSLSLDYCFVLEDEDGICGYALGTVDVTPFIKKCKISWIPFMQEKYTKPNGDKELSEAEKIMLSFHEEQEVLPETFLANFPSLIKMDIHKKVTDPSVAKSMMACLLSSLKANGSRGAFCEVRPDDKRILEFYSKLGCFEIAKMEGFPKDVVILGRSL
Procedure: Assay for Determination of […] for Inhibition of O-GlcNAcase Activity
Experimental procedure for kinetic analyses: Enzymatic reactions were carried out in a reaction containing 50 mM NaH2PO4, 100 mM NaCl and 0.1% BSA (pH 7.0) using 2 mM 4-Methylumbelliferyl N-acetyl-β-D-glucosaminide dihydrate (Sigma M2133) dissolved in ddH2O, as a substrate. The amount of purified human O-GlcNAcase enzyme used in the reaction was 0.7 nM. Test compound of varying concentrations was added to the enzyme prior to initiation of the reaction. The reaction was performed at room temperature in a 96-well plate and was initiated with the addition of substrate. […] The slope of product production was determined for each concentration of compound tested and plotted, using standard curve fitting algorithms for sigmoidal dose response curves. The values for a four parameter logistic curve fit of the data were determined.

[2] = Determination of apparent permeability (Papp), bi-directional transport in LLC-PK1 cells; assay type: in vitro ADME; conditions: pig, t=3 h, average of A to B and B to A
Procedure: (§1) Bi-directional transport was evaluated in LLC-PK1 cells in order to determine apparent permeability (Papp). LLC-PK1 cells can form a tight monolayer and therefore can be used to assess vectorial transport of compounds from basolateral to apical (B→A) and from apical to basolateral (A→B).
(§2) To determine Papp LLC-PK1 cells were cultured in 96-well transwell culture plates (Millipore). Solutions containing the test compounds (1 μM) were prepared in Hank's Balanced Salt Solution with 10 mM HEPES. Substrate solution (150 μL) was added to either the apical (A) or the basolateral (B) compartment of the culture plate, and buffer (150 μL) was added to the compartment opposite to that containing the compound. At t=3 h, 50 μL samples were removed from both sides of monolayers dosed with test compound and placed in 96 well plates, scintillant (200 μL) or internal standard (100 μL labetolol 1 μM) was added to the samples and concentration was determined by liquid scintillation counting in a MicroBeta Wallac Trilux scintillation counter (Perkin Elmer Life Sciences, Boston, Mass.) or by LCMS/MS (Applied Biosystems SCIEX API 5000 triple quadruple mass spectrometer). [^3H]Verapamil (1 μM) was used as the positive control. The experiment was performed in triplicate.

[3] = biological target: T2, hPgp (Homo sapiens, UniProt P08183); assay: hPgp efflux ratio (Papp B→A/A→B ratio); assay type: in vitro ADME; conditions: LLC-PK1
T2 construct: expressed in transfected cells; host or cells: LLC-PK1 cells
T2 sequence (P08183 whole entry): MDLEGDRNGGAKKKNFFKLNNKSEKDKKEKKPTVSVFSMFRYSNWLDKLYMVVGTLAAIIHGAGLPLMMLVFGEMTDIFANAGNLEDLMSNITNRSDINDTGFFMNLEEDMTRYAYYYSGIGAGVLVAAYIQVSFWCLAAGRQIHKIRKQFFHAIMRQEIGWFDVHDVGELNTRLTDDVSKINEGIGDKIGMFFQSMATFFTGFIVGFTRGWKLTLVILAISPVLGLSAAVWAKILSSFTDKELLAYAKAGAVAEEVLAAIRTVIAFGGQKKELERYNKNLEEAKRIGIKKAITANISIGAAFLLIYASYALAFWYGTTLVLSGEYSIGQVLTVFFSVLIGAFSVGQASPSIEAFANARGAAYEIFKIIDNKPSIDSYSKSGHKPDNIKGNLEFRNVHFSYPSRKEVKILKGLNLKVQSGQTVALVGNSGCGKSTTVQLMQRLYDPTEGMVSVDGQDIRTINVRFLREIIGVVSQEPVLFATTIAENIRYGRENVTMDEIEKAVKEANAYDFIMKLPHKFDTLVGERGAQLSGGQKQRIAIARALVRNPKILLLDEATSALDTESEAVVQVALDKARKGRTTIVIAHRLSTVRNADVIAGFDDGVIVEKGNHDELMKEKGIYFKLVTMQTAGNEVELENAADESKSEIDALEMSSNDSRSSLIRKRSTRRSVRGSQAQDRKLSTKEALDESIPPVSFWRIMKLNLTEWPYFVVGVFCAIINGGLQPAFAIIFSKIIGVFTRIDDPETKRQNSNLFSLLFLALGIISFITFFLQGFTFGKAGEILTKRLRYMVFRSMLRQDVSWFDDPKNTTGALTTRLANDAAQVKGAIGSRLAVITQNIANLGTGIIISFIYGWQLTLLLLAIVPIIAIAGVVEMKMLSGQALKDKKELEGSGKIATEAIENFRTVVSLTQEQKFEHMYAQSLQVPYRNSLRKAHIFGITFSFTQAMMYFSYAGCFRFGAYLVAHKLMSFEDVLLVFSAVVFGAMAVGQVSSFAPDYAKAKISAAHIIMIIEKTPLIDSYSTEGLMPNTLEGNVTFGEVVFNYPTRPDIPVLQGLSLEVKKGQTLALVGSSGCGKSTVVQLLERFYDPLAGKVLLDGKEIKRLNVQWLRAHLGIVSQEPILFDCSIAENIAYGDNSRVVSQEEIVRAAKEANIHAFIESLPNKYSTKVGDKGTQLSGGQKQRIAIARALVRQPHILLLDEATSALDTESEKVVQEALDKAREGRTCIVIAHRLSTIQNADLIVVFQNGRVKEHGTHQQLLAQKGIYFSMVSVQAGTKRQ
Procedure: as §1, §2

[4] = purified human O-GlcNAcase 0.7 nM, 2 mM substrate, pH 7.0, room temperature, Cheng-Prusoff, read-out: Ki

| Compound | pKi [1, 4] | Papp at 3 h, 1 μM [2] [×10⁻⁶ cm/s] | efflux ratio at 3 h, 1 μM [3] | pKi [1] |
| --- | --- | --- | --- | --- |
| CNC1=N[C@@H]2[C@@H](O)[C@H](O)[C@@H](CCCc3ccc(OC)cc3)O[C@@H]2S1 [Example 34, (3aR,5R,6S,7R,7aR)-5-[3-(4-methoxyphenyl)propyl]-2-(methylamino)-5,6,7,7a-tetrahydro-3aH-pyrano[3,2-d][1,3]thiazole-6,7-diol] | 7.95 | 25 | 3.4 | – |
| CCNC1=N[C@@H]2[C@@H](O)[C@H](O)[C@@H](CCl)O[C@@H]2S1 [Example 54, (3aR,5S,6S,7R,7aR)-5-(chloromethyl)-2-(ethylamino)-5,6,7,7a-tetrahydro-3aH-pyrano[3,2-d]thiazole-6,7-diol] | – | – | – | 8.64 |
| CCNCC[C@H]1O[C@@H]2SC(NC)=N[C@@H]2[C@@H](O)[C@@H]1O [Example 55, (3aR,5R,6S,7R,7aR)-5-(2-(ethylamino)ethyl)-2-(methylamino)-5,6,7,7a-tetrahydro-3aH-pyrano[3,2-d]thiazole-6,7-diol] | 8.03 | – | – | – |
| CN(C)C1=N[C@@H]2[C@@H](O)[C@H](O)[C@@H](C(C)(C)Cl)O[C@@H]2S1 [Example 56, (3aR,5S,6S,7R,7aR)-5-(2-chloropropan-2-yl)-2-(dimethylamino)-5,6,7,7a-tetrahydro-3aH-pyrano[3,2-d]thiazole-6,7-diol] | 6.68 | – | – | – |
| C#C[C@H]1O[C@@H]2SC(NCC)=N[C@@H]2[C@@H](O)[C@@H]1O [Example 57, (3aR,5R,6S,7R,7aR)-2-(ethylamino)-5-ethynyl-5,6,7,7-tetrahydro-3aH-pyrano[3,2-d]thiazole-6,7-diol] | 6.08 | – | – | – |
| CCNC1=N[C@@H]2[C@@H](O)[C@H](O)[C@@H](C#N)O[C@@H]2S1 [Example 58, (3aR,5R,6S,7R,7aR)-2-(ethylamino)-6,7-dihydroxy-5,6,7,7a-tetrahydro-3aH-pyrano[3,2-d]thiazole-5-carbonitrile] | 6.22 | – | – | – |
| CNC1=N[C@@H]2[C@@H](O)[C@H](O)[C@@H](CSc3ccccc3)O[C@@H]2S1 [Example 59, (3aR,5 S,6S,7R,7aR)-2-(methylamino)-5-((phenylthio)methyl)-5,6,7,7a-tetrahydro-3aH-pyrano[3,2-d]thiazole-6,7-diol] | 8.72 | – | – | – |

The next lines start with results.

| pKi [1, 4] | Papp at 3 h, 1 μM [2] [×10⁻⁶ cm/s] | efflux ratio at 3 h, 1 μM [3] | Compound | pKi [1] |
| --- | --- | --- | --- | --- |
| 7.12 | – | – | CNC1=N[C@@H]2[C@@H](O)[C@H](O)[C@@H](CS(=O)(=O)c3ccccc3)O[C@@H]2S1 [Example 60, (3aR,5 S,6S,7R,7aR)-2-(methylamino)-5-((phenylsulfonyl)methyl)-5,6,7,7a-tetrahydro-3 aH-pyrano[3,2-d]thiazole-6,7-diol] | – |
| 8.39 | – | – | CNC1=N[C@@H]2[C@@H](O)[C@H](O)[C@@H](CSCc3ccccc3)O[C@@H]2S1 [Example 61, (3aR,5S,6S,7R,7aR)-5-((benzylthio)methyl)-2-(methylamino)-5,6,7,7a-tetrahydro-3aH-pyrano[3,2-d]thiazole-6,7-diol] | – |
| 6.45 | 1.3 | 1.1 | CNC1=N[C@@H]2[C@@H](O)[C@H](O)[C@@H](CS(=O)(=O)Cc3ccccc3)O[C@@H]2S1 [Example 62, (3aR,5S,6S,7R,7aR)-5-((benzylsulfonyl)methyl)-2-(methylamino)-5,6,7,7a-tetrahydro-3aH-pyrano[3,2-d]thiazole-6,7-diol] | – |
